SMILES strings stand for the structures. Converted amounts (≈) assume the structure as drawn.

Consider 16 molecules from patent US9255071B2, “Compounds having antibacterial activity, process for their preparation and pharmaceutical compositions comprising them” (Consejo Nacional de Investigaciones Cientificas y Técnicas …, priority 2012, dated 2016).

In series [1] the test system is Streptococcus pneumoniae. To be noted: Streptococcus pneumoniae ATCC 10015; reference antibiotic according to WHONET; cited from earlier work.
The subject of series [2] is Acinetobacter guillouiae. Conditions: Acinetobacter guillouiae ATCC 11171; reference antibiotic according to WHONET; in µg/mL; cited from earlier work.
Series [3] relates to Shigella flexneri. The arrangement: unit not given beside the values. To be noted: Shigella flexneri ATCC 11836; reference antibiotic according to WHONET; cited from earlier work.
Series [4] has as its system Shigella boydii. The arrangement: unit not given beside the values. Conditions: Shigella boydii ATCC 12027; reference antibiotic according to WHONET; cited from earlier work.
Series [5] concerns Staphylococcus Aureus. To be noted: Staphylococcus Aureus ATCC 29737; reference antibiotic according to WHONET; in µg/mL; cited from earlier work.
Series [6] concerns Enterococcus faecalis. Conditions: Enterococcus faecalis ATCC 29212; reference antibiotic according to WHONET; in µg/mL; cited from earlier work.
Series [7] deals with Mycobacterium smegmatis. In words: Determination of the Minimum Inhibitory Concentration, M. smegmatis. To be noted: Mycolicibacterium smegmatis, ATCC607; M. smegmatis (ATCC 607), 72 h incubation, 1×10^5 CFU/ml inoculum. Type of series: cell-based. The protocol:
(§1) The Minimum Inhibitory Concentration (MIC), which is defined as the lowest antimicrobial agent concentration inhibiting the visible growth of a microorganism following its incubation, was subsequently determined.
(§2) For the purpose of such determination, the compounds under study were tested on the strains listed in Table 3 with the antibiotics (AB) stated as reference in the table.
(§3) The test was conducted on a plate on the basis of a 1×10^5 CFU/ml inoculum concentration, with negative, positive and sterility controls being simultaneously performed. Different concentrations of the compounds under study were tested, as shown on the last column included in Table 3 (working solution).
(§4) Following incubation at 32.5±2.5° C. for a 24 h period (48 h in the case of C. sporogenes and 72 h in the case of M. smegmatis), the plates were visually read. The appearance of turbidity and/or the formation of a growth point at the microtube bottom were held as a positive result.

Series [8] concerns Clostridium sporogenes. In words: Determination of the Minimum Inhibitory Concentration, C. sporogenes. Type of series: cell-based. To be noted: ATCC19404, C. sporogenes (ATCC 19404), 48 h incubation, 1×10^5 CFU/ml inoculum. The protocol:
as §1, §2, §3, §4

Series [9] deals with Streptococcus pneumoniae. The experiment in a line: Determination of the Minimum Inhibitory Concentration, S. pneumoniae. The format is cell-based. To be noted: ATCC10015, S. pneumoniae (ATCC 10015), 24 h incubation, 1×10^5 CFU/ml inoculum. The procedure:
as §1, §2, §3, §4

The test system of series [10] is Shigella boydii. The experiment in a line: Determination of the Minimum Inhibitory Concentration, S. boydii. The format is cell-based. To be noted: ATCC12027, S. boydii (ATCC 12027), 24 h incubation, 1×10^5 CFU/ml inoculum. The procedure:
as §1, §2, §3, §4

The test system of series [11] is Shigella flexneri. The experiment in a line: Determination of the Minimum Inhibitory Concentration, S. flexneri. Type of series: cell-based. Conditions: ATCC11836, S. flexneri (ATCC 11836), 24 h incubation, 1×10^5 CFU/ml inoculum. The protocol: as §1, §2, §3, §4

As for `CC1(C)S[C@@H]2[C@H](NC(=O)[C@H](N)c3ccccc3)C(=O)N2[C@H]1C(=O)O` [Ampicillin (sodium), Ampicillin], the “MIC (for WHO antibiotics)” value in series [1] was “≦0.5”. `COc1ccc(C=CC(=O)N2CCN(C(=O)C=Cc3ccc(OC)c(C(F)F)c3)CC2)cc1C(F)F` [Example 6, N,N′-bis[3-(difluoromethyl)-4-methoxy-cinnamoyl]piperazine] came in with a melting point of 259 to 261 °C.

Molecule `COc1ccc(C=CC(=O)N2CCOCC2)cc1C(F)F` [Example 12, N-[3-(difluoromethyl)-4-methoxy-cinnamoyl]morpholine] showed a melting point of 119 °C. On to `CN(C)c1ccc(O)c2c1C[C@H]1C[C@H]3[C@H](N(C)C)C(O)=C(C(N)=O)C(=O)[C@@]3(O)C(O)=C1C2=O` [Minocyclin], for which the “MIC (for WHO antibiotics)” value in series [2] is recorded as 0.06-8.0. With `C[C@@H]1O[C@@H]1P(=O)(O)O` [Phosphomycin], the “MIC (for WHO antibiotics)” value in series [3] and in series [4] was “≦4.0” throughout. `CN[C@H](CC(C)C)C(=O)N[C@H]1C(=O)N[C@@H](CC(N)=O)C(=O)N[C@H]2C(=O)N[C@H]3C(=O)N[C@H](C(=O)N[C@H](C(=O)O)c4cc(O)cc(O)c4-c4cc3ccc4O)[C@H](O)c3ccc(c(Cl)c3)Oc3cc2cc(c3O[C@@H]2O[C@H](CO)[C@@H](O)[C@H](O)[C@H]2O[C@H]2C[C@](C)(N)[C@H](O)[C@H](C)O2)Oc2ccc(cc2Cl)[C@H]1O` [Vancomycin]: the “MIC (for WHO antibiotics)” value in series [5] is 0.5-2.0; in [6], 1.0-4.0. In turn, `COc1ccc(/C=C/C(=O)Nc2ccccc2)cc1C(F)F` [compound 1] registered an MIC in series [7] of 64 µg/mL (≈ 211 µM). Same read-out and setting: then `COc1ccc(/C=C/C(=O)NC(C)C)cc1C(F)F` [compound 2], with 8 µg/mL (≈ 29.7 µM).

As for `COc1ccc(/C=C/C(=O)NNC(=O)c2ccncc2)cc1C(F)F` [compound 4], the minimum inhibitory concentration (MIC) in [7] and in series [8] was 64 µg/mL (≈ 184 µM) throughout. In series [7], `COc1ccc(/C=C/C(=O)NCC(C)C)cc1C(F)F` [compound 5] registered an MIC of 32 µg/mL (≈ 113 µM). As to `COc1ccc(/C=C/C(=O)NCCC(C)C)cc1C(F)F` [compound 6], the MIC was determined as 8 µg/mL (≈ 26.9 µM) in series [7] and 64 µg/mL (≈ 215 µM) in series [9]. On to `COc1ccc(/C=C/C(=O)NCCCNC(=O)/C=C/c2ccc(OC)c(C(F)F)c2)cc1C(F)F` [compound 7], for which, in series [9], the MIC was 64 µg/mL (≈ 129 µM). Molecule `COc1ccc(/C=C/C(=O)NC(C)C)cc1` [compound 8] yielded an MIC in [7] of 32 µg/mL (≈ 146 µM). The same measure, in the same setting: then `COc1ccc(/C=C/C(=O)NC(C)C)cc1C` [compound 9], with 32 µg/mL (≈ 137 µM). For the molecule `COc1ccc(/C=C/C(=O)NC(C)C)cc1O` [compound 10], the MIC in series [10] and in series [11] was 32 µg/mL (≈ 136 µM) throughout.

In turn, `CC(=O)Oc1ccc(/C=C/C(=O)NC(C)C)cc1C(F)F` [entry 3] gave an MIC in series [7] of 64 µg/mL (≈ 215 µM).

In general, melting point refers to the temperature, or range, at which the solid turns liquid. A word on the MIC: it is the lowest concentration found to suppress growth.
